Assay results: patent US7989495B2, “Compositions and methods for inhibiting NF-κB mediated tumorigenicity and adhesion dependent survival of cancer cells” (University of Utah Research Foundation, priority 2002, dated 2011)

Columns and labels:
Type in all cases: cell-based
[1] = test system: transiently suspended Caco-2 cells; experiment: Apoptosis (annexin V) of transiently suspended cells allowed to readhere; details: treated
Protocol: Single cell suspensions were plated at 100,000 cells per well in 24-well plates in media containing DMSO, BAY 11-7082, BAY 11-7085, or MG-132 for 8-24 hours in an incubator. Alternatively, DMSO, BAY 11-7082, BAY 11-7085, or MG-132 were added to cells that were confluent and adherent for several days. The nonadherent cells were aspirated off with the media and spun for 3 minutes at 2,000 rpm in 15 ml polypropylene tubes. The adherent cells were washed twice with PBS, dispersed in trypsin, and spun down for 3 minutes at 2,000 rpm in 15 ml polypropylene tubes. The nonadherent and adherent cells were resuspended in 1× binding buffer (10 mM HEPES/NaOH, pH 7.4, 140 mM NaCl, and 2.5 mM CaCl2) to a final concentration of 10^6 cells/ml. […] 400 μl of binding buffer was added to each tube and the cells were analyzed by flow cytometry immediately. The percent of apoptosis was determined as the percent of annexin V-positive, propidium iodide-negative cells of the total cells counted.
Since trypsin can activate protease-activated receptor-2 in colon cancer cell lines, which then results in increased cell proliferation, (Darmoul et al., 2001) NF-κB activation was determined in adherent and confluent DLD-1, HCT-116, Caco-2 and HT-29 cells that were removed from plastic dishes by trypsin or scraping. […]

293-COX-2 cells = experiment: Apoptosis of 293 cells with ponasterone-inducible COX-2; details: 8 hours
Protocol: (§1) The transiently suspended cells were lysed and allowed to bind to DNA oligonucleotides, containing the NF-κB consensus binding site, that were immobilized to 96-well plates. NF-κB protein bound to the oligonucleotides was detected by an antibody to the p65 subunit that only recognized p65 that is bound to DNA. The positive control was HeLa cells that were stimulated with TNFα A control was performed using excess free NF-κB oligonucleotides (Competitor). […] NF-κB binding activity was determined by the TransAM assay as in FIG. 5A. […] The data shown represent typical results of three separate experiments. […] An immunoblot for COX-2 was performed.
DLD-1, HCT-116, and HT-29 colon cancer cell lines were obtained from the ATCC collection and were cultured in Dulbecco's Modification of Eagle's Medium supplemented with 10% fetal bovine serum, glutamine, penicillin, and streptomycin. […]
Single cell suspensions were plated at 100,000 cells per well in 24-well plates in media containing DMSO, BAY 11-7082, BAY 11-7085, or MG-132 for 8-24 hours in an incubator. […] 400 μl of binding buffer was added to each tube and the cells were analyzed by flow cytometry immediately. The percent of apoptosis was determined as the percent of annexin V-positive, propidium iodide-negative cells of the total cells counted. […]

[2] = test system: NF-κB (p65) binding to NF-κB consensus oligonucleotides; experiment: NF-κB binding activity assay (Trans-AM) on lysates of treated HT-29 cells
Protocol: as §1
Activation of NF-κB was also determined using the Trans-AM™ assay (Active Motif, Carlsbad, Calif.) per the manufacturer's instructions. (Renard et al., 2001) Briefly, cell monolayers on 60 mm dishes were washed with ice-cold PBS and removed by incubating in trypsin-PBS or scraping. The cells were centrifuged for 10 minutes at 1,000 rpm at 4° C. and resuspended for 10 minutes in 100 μl of 4° C. lysis buffer (20 mM HEPES (pH 7.5), 350 mM NaCl, 20% glycerol, 1% Igepal-CA630, 1 mM MgCl2, 0.5 mM EDTA, 0.1 mM EGTA, 1 μl of 1 M dithiothreitol and 10 μl of protease inhibitor cocktail (proprietary) per ml of lysis buffer). The lysates were centrifuged for 20 minutes at 14,000 g at 4° C. Lysates containing 5 μg of total protein were added to 20 μl of lysis buffer per well in 96-well dishes containing immobilized oligonucleotides corresponding to the NF-κB consensus DNA binding site (5′-GGGACTTTCC-3′) (SEQ ID NO:2). The plate was covered with an adhesive film and incubated for 1 hour at room temperature on a rocker. The wells were then washed three times with 200 μl per well of washing buffer (100 mM phosphate buffer (pH 7.5), 500 mM NaCl, 1% Tween). 100 μl of p65subunit monoclonal antibody (the p65 antibody supplied with the kit only recognizes p65-containing NF-κB heterodimers that are bound to DNA containing the NF-κB consensus binding sequence) was diluted 1:1,000 in 1× antibody binding buffer (4 mM HEPES (pH 7.5), 120 mM KCl, 8% glycerol, 1% bovine serum albumin) and added to each well and incubated for 1 hour at room temperature. The wells were washed with 100 μl of washing buffer three times. 100 μl of horseradish peroxidase-conjugated secondary antibody diluted 1:1,000 in 1× antibody binding buffer was added to each well and incubated for 1 hour at room temperature without agitation. […] 100 μl of stop solution (0.5 M H2SO4) was added to each well after which the absorbance was determined on a plate spectrophotometer at 450 nm. Specificity of binding was determined using 200-fold excess wildtype NF-κB oligonucleotides added at the time the cell lysates were added to the wells. […]

With `CC(C)(C)c1ccc(S(=O)(=O)/C=C/C#N)cc1` [BAY 11-7085, (2E)-3-[4-(tertiarybutylphenyl)sulfonyl]-2-propenenitrile] the “BAY 11-7085-induced apoptosis during readhesion” value [1] was “showed a moderate increase”, the apoptosis following treatment (293-COX-2 cells; ponasterone-induced (1 μg/ml, 48 hours) 293-COX-2 cells) was “marked increase in BAY 11-7085-induced apoptosis” and the apoptosis following treatment (293-COX-2 cells; uninduced 293-COX-2 cells) was “no increase in apoptosis”. The “constitutive NF-κB activation in adherent cells” value ([2]; adherent HT-29, increasing concentrations, 8 hours) was “relatively unaffected”, the “inhibition of constitutive NF-κB activation in adherent cells” value ([2]; adherent colon cancer cells, doses up to 50 μM) was “could not be inhibited” and the “inhibition of NF-κB activation caused by readhesion” value ([2]; transiently suspended HT-29, increasing concentrations, 8 hours) was “dose-related inhibition of this NF-κB activation”. The “inhibition of NF-κB activation induced by readhesion” value ([2]; transiently suspended colon cancer cells, as little as 10 μM) was “almost totally inhibited”.
